Assays:
[1] = biological target: Glutamate receptor ionotropic, NMDA 1 (Homo sapiens, UniProt Q05586); experiment: Concentration required for 50% Inhibition of responses at cloned NR1A/2AB NMDA expressed in Xenopus oocytes; format: cell-based, Oocyte
[2] = biological target: Glutamate receptor ionotropic, NMDA 1 (Homo sapiens, UniProt Q05586+Q14957); experiment: Concentration required for 50% Inhibition of responses at cloned NR1A/2C NMDA expressed in Xenopus oocytes; format: cell-based, Oocyte
[3] = biological target: Glutamate receptor ionotropic, NMDA 1 (Homo sapiens, UniProt Q05586+Q12879); experiment: Concentration required for 50% Inhibition of responses at cloned NR1A/2A NMDA expressed in Xenopus oocytes; format: cell-based, Oocyte
[4] = biological target: Glutamate receptor ionotropic, NMDA 2C (Rattus norvegicus, UniProt P35439+Q00961); experiment: Concentration required for 50% Inhibition of responses at cloned NR1A/2C N-methyl-D-aspartate (NMDA) expressed in Xenopus oocytes; format: cell-based, Oocyte
Rattus norvegicus [5] = experiment: Lowest oral dose that shows significant potentiation of total contraversive rotations over 3 hr caused by L-DOPA (10mg/kg, sc) in 6-hydroxydopamine-lesioned rats (n=8)administered perorally; format: functional; details: read-out: MED
D(2) dopamine receptor = D(2) dopamine receptor (Rattus norvegicus, UniProt P61169); experiment: Displacement of [3H]raclopride at Dopamine receptor D2 in brain striata (n=1); format: tissue-based
[6] = biological target: T1, Adrenergic receptor alpha-1 (Rattus norvegicus, UniProt P15823+P23944+P43140); experiment: Displacement of [3H]prazosin at alpha-1 adrenergic receptor in rat brain cortices (n=1); format: tissue-based
T1 sequence (P15823 whole entry): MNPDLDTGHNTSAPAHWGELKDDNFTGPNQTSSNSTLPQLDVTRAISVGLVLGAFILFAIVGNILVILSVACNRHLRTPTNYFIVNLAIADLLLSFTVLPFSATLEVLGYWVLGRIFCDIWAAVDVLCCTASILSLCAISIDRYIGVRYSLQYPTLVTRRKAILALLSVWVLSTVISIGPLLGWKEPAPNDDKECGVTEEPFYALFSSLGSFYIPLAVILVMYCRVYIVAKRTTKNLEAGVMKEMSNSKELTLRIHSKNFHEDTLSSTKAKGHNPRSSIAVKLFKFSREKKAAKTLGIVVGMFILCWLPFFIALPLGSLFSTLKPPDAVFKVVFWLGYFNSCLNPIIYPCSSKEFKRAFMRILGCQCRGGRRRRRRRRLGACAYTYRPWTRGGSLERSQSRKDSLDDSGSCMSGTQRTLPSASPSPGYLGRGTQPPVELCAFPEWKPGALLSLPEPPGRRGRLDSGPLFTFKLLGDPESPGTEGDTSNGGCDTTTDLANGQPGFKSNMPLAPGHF
T1 sequence (P23944 whole entry): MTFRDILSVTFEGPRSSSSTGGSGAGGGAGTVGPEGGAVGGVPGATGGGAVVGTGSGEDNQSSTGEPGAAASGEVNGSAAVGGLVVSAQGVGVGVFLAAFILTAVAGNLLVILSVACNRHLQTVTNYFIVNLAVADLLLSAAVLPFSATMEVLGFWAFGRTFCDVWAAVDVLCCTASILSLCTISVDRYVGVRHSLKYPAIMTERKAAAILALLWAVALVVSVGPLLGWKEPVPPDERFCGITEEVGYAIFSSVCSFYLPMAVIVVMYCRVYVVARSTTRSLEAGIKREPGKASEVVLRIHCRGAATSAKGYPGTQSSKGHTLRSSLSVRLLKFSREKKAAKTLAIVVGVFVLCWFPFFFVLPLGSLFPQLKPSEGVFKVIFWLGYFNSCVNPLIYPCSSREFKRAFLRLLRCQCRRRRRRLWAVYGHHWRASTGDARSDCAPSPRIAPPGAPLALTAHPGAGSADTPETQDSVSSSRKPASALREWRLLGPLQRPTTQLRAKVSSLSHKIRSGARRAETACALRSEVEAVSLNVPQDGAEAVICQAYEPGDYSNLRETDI
T1 sequence (P43140 whole entry): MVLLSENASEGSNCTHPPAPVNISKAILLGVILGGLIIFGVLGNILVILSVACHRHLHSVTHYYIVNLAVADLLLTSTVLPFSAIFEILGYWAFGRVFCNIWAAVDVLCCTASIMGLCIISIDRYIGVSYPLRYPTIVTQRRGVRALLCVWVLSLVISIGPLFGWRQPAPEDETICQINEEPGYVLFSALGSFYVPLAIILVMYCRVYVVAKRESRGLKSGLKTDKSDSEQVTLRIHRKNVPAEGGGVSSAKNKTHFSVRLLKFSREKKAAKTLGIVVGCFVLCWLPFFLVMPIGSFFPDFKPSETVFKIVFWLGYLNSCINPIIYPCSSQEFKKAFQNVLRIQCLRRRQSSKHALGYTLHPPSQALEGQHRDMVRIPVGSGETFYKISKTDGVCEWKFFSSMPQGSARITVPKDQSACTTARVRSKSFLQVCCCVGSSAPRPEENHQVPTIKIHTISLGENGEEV

[7] = biological target: Glutamate NMDA receptor; Grin1/Grin2a (Rattus norvegicus, UniProt P35439+Q00959); experiment: Concentration required for 50% Inhibition of responses at cloned NR1A/2A N-methyl-D-aspartate (NMDA) expressed in Xenopus oocytes; format: cell-based, Oocyte
[8] = biological target: T1, Adrenergic receptor alpha-1; experiment: Displacement of [3H]-prazosin at alpha-1 adrenergic receptor inat brain cortices (n=1)
Rattus norvegicus [9] = experiment: Lowest oral dose that shows significant potentiation of total contraversive rotations over 3 hr caused by L-DOPA (10mg/kg, sc) in 6-hydroxydopamine-lesioned rats (n=8) administered perorally; format: functional; details: read-out: MED
Rattus norvegicus [10] = experiment: Lowest oral dose that shows significant potentiation of total contraversive rotations over 3 hr caused by L-DOPA (10mg/kg, sc) in 6-hydroxydopamine-lesioned rats (n=8);administered perorally; format: functional; details: read-out: MED

Chain of Glutamate receptor ionotropic, NMDA 2C (Q00961 whole entry, one chain of several): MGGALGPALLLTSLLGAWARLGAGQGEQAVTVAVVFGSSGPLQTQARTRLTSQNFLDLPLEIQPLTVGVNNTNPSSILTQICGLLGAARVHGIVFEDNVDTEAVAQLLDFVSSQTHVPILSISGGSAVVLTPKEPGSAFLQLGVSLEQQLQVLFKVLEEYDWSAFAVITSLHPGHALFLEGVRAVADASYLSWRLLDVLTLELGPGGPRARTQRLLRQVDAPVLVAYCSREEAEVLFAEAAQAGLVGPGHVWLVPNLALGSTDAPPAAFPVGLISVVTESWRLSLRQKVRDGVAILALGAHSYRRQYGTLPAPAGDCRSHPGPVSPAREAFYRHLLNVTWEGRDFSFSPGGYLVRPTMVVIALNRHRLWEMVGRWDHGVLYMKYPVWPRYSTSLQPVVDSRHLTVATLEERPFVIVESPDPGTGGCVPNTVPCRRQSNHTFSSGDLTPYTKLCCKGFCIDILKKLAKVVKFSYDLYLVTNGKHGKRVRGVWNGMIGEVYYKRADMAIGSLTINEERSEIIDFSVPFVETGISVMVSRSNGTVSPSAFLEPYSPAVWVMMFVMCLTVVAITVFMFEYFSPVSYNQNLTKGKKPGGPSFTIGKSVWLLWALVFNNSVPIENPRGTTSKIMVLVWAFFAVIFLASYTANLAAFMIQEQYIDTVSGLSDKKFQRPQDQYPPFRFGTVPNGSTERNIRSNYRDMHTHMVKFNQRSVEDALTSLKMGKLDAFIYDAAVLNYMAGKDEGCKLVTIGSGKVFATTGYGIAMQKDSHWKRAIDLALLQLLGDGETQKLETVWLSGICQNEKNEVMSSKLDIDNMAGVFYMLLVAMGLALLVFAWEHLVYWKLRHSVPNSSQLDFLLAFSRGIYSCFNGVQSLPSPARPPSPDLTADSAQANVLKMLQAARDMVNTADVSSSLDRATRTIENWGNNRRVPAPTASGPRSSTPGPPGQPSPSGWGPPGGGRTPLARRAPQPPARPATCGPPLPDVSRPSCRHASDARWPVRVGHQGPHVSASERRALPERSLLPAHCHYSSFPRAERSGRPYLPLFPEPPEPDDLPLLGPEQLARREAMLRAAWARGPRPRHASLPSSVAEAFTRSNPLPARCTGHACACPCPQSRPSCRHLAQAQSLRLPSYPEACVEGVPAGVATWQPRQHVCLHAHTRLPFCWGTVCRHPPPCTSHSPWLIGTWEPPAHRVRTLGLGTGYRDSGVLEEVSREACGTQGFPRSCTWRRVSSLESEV
Chain of D(2) dopamine receptor (P61169 whole entry): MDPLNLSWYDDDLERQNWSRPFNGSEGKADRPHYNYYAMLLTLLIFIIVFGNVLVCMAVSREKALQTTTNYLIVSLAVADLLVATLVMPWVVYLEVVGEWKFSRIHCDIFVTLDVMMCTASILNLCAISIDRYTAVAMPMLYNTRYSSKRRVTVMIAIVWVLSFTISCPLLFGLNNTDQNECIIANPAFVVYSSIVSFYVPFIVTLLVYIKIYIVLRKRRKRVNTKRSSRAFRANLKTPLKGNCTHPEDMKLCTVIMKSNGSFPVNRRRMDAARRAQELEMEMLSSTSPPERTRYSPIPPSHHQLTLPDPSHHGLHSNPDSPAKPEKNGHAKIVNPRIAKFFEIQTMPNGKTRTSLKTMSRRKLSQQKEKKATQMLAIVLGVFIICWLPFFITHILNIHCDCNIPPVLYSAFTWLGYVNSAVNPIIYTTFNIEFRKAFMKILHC
Chain of Glutamate NMDA receptor; Grin1/Grin2a (Q00959 whole entry, looked up, other chains not shown): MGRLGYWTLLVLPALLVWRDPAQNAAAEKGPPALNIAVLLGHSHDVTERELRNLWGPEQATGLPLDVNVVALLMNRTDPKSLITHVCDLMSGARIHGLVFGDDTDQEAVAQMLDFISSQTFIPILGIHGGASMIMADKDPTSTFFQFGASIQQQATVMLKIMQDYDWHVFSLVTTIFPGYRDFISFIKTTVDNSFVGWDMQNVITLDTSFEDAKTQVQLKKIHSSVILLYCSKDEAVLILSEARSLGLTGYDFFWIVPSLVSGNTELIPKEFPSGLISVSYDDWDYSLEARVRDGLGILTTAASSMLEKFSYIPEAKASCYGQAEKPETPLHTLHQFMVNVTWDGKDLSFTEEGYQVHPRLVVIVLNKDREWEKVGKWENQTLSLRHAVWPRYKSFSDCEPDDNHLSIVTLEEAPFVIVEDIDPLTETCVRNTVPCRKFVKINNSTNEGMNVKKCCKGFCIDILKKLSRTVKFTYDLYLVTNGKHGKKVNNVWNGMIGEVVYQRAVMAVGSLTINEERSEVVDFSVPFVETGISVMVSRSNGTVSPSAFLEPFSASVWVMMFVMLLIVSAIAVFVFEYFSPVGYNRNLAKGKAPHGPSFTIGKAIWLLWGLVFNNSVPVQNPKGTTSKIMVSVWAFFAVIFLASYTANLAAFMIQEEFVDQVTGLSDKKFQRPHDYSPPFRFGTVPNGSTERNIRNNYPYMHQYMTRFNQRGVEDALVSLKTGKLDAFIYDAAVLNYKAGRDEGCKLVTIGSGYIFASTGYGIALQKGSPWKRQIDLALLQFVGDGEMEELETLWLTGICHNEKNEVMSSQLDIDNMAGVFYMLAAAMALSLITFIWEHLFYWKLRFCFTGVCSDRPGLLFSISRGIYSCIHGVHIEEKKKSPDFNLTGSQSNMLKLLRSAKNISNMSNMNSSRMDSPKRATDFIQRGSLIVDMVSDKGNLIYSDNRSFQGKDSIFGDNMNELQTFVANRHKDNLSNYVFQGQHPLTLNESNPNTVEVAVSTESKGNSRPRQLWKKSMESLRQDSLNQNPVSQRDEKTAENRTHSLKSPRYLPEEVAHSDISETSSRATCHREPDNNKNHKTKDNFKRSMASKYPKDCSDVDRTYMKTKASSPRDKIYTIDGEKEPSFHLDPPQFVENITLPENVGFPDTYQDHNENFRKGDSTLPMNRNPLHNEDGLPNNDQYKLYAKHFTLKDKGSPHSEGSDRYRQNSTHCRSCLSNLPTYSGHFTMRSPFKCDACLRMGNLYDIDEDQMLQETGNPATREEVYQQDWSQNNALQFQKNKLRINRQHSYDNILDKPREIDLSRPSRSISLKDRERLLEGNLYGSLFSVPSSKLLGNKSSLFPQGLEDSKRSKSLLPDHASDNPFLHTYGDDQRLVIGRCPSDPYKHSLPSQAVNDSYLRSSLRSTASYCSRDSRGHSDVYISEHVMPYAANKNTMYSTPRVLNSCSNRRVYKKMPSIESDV

| Structure (SMILES) | IC50 [1] | IC50 [2] | IC50 [3] | IC50 (D(2) dopamine receptor) | also measured |
| --- | --- | --- | --- | --- | --- |
| O=C1Nc2ccc(C#CCCN3CCC(Cc4ccccc4)CC3)cc2C1=O | 1.8 µM |  | 57 µM |  | IC50 [4]: > 100 µM |
| C(#Cc1ccc2nn[nH]c2c1)CCN1CCC(Cc2ccccc2)CC1 | 0.22 µM | > 100 µM | > 100 µM |  |  |
| O=C1Cc2cc(C#CCCN3CCC(Cc4ccccc4)CC3)ccc2N1 | 0.32 µM | > 100 µM | 52 µM |  |  |
| C(#Cc1ccc2cc[nH]c2c1)CCN1CCC(Cc2ccccc2)CC1 |  |  |  |  | IC50 [4]: > 100 µM; IC50 [7]: > 100 µM |
| Oc1nc2cc(C#CCN3CCC(Cc4ccc(F)cc4)CC3)ccc2[nH]1 | 0.0082 µM | > 100 µM | 38 µM | 1.7 µM | minimal effective dose (Rattus norvegicus [5]): 30 mg/kg; IC50 [6]: 1.2 µM |
| Oc1nc2cc(C#CCN3CCC(O)(Cc4ccc(F)cc4)CC3)ccc2[nH]1 |  |  |  | 41 µM | IC50 [8]: 18 µM; minimal effective dose (Rattus norvegicus [9]): > 30 mg/kg |
| Oc1nc2cc(C#CCN3CCC(Cc4cccc(F)c4)CC3)ccc2[nH]1 | 0.0061 µM | > 100 µM | > 100 µM | 3.9 µM | minimal effective dose (Rattus norvegicus [5]): > 30 mg/kg; IC50 [6]: 0.7 µM |
| C(#Cc1ccc2[nH]ncc2c1)CCN1CCC(Cc2ccccc2)CC1 | 0.25 µM | > 100 µM | 95 µM |  |  |
| O=C1COc2cc(C#CCCN3CCC(Cc4ccccc4)CC3)ccc2N1 | 1.1 µM | > 100 µM | > 100 µM |  |  |
| Oc1nc2cc(C#CCN3CCC(Cc4ccc(Cl)cc4)CC3)ccc2[nH]1 | 0.019 µM |  |  | 3.7 µM | minimal effective dose (Rattus norvegicus [10]): 30 mg/kg; IC50 [6]: 5.8 µM |
| COc1ccc(CC2CCN(CC#Cc3ccc4[nH]c(O)nc4c3)CC2)cc1 | 0.026 µM | > 100 µM | > 100 µM | 9.9 µM | minimal effective dose (Rattus norvegicus [5]): > 30 mg/kg; IC50 [6]: 17 µM |
| Oc1nc2cc(C#CCN3CCC(O)(Cc4ccccc4)CC3)ccc2[nH]1 | 0.019 µM | > 100 µM | > 100 µM | 86 µM | IC50 [6]: 55 µM |
| Cc1ccc(CC2CCN(CC#Cc3ccc4[nH]c(O)nc4c3)CC2)cc1 | 0.017 µM |  |  | 14 µM | minimal effective dose (Rattus norvegicus [5]): 30 mg/kg; IC50 [6]: 3.1 µM |
| Oc1ccc(C#CCN2CCC(Cc3ccccc3)CC2)cc1 |  |  |  |  | IC50 [4]: > 100 µM; IC50 [7]: > 100 µM |

Now from value to compound, other results behind:

| IC50 [1] | IC50 [2] | IC50 [3] | IC50 (D(2) dopamine receptor) | Structure (SMILES) | also measured |
| --- | --- | --- | --- | --- | --- |
| 0.12 µM | > 100 µM | 39 µM |  | O=c1[nH]c2ccc(C#CCCN3CCC(Cc4ccccc4)CC3)cc2o1 |  |
| 15 µM | > 100 µM | > 100 µM |  | C(#Cc1ccc2[nH]ccc2c1)CN1CCC(Cc2ccccc2)CC1 |  |
| 62 µM | > 100 µM | 89 µM |  | Cn1c(=O)[nH]c2cc(C#CCN3CCC(Cc4ccccc4)CC3)ccc21 |  |
| 0.38 µM | > 100 µM | > 100 µM |  | C(#Cc1ccc2[nH]ncc2c1)CN1CCC(Cc2ccccc2)CC1 |  |
|  | > 100 µM |  |  | Cn1c(=O)[nH]c2ccc(C#CCN3CCC(Cc4ccccc4)CC3)cc21 |  |
| 0.42 µM | > 100 µM | > 100 µM |  | C(#Cc1ccc2[nH]nnc2c1)CN1CCC(Cc2ccccc2)CC1 |  |
| 0.18 µM | > 100 µM | 75 µM |  | S=c1[nH]c2ccc(C#CCCN3CCC(Cc4ccccc4)CC3)cc2[nH]1 |  |
| 0.016 µM | > 100 µM | 25 µM |  | S=c1[nH]c2ccc(C#CCN3CCC(Cc4ccccc4)CC3)cc2[nH]1 |  |
| 0.11 µM | > 100 µM | > 100 µM |  | O=C1Cc2cc(C#CCN3CCC(Cc4ccccc4)CC3)ccc2N1 |  |
|  |  |  | 2.6 µM | Oc1nc2cc(C#CCN3CCC(Cc4ccccc4)CC3)ccc2[nH]1 | minimal effective dose (Rattus norvegicus [5]): 10 mg/kg; IC50 [6]: 0.5 µM |
| 0.089 µM | > 100 µM | 39 µM |  | O=c1[nH]c2ccc(C#CCCN3CCC(Cc4ccccc4)CC3)cc2[nH]1 |  |
| 0.049 µM |  |  |  | Oc1nc2ccc(C#CCN3CCC(Cc4ccccc4)CC3)cc2o1 |  |
